Assay [1] has as its system Substrate M (Sub M, SEVNLDAEFR; β-secretase cleavage site of APPsw). Nature of the assay: Binding of biotin-labeled Substrate M to immobilized complementary (HC) peptides. Particulars: substrate not specified.
For assay [2], the target named is T1, cleavage of Sub-ST6Ga11 by rhBACE1 (Rattus norvegicus, UniProt P13721).
T1 construct: 19 amino acid region (DYEALTL/QAKEFQMPKSQE) that contains the β-cleavage site for investigation was chosen; purchased A&Pep Co., Inc. (non-labelled peptides); R&D Systems (rhBACE1)
Nature of the assay: HPLC analysis of the cleavage of Sub-ST6Ga11 by rhBACE1. Type of assay: biochemical, human. Particulars: up to 10 inhibitor/substrate ratio, Sub-ST6Ga11 50 μM, 500 nM enzyme. From the text:
One of the advantages of the APP inhibitor described in the present invention is that it is a peptide or a mimetic that bind to the β-secretase cleavage site of APP, thus not affecting other β-secretase substrates. To confirm the specificity of the inventive APP inhibitor, two different types of substrates were used, APP Sub M and ST6Ga11. Both substrates are cleaved by β-secretase under normal conditions and the effect of the inventive APP inhibitor on the substrate cleavage was monitored by HPLC (See the schematic diagram in FIG. 16.) To carry out these experiments, the concentration of β-secretase required for cleavage of both substrates was determined as shown in FIG. 17. For substantial cleavage of ST6Ga11 substrate, 420 nM of the enzyme was required. Therefore, 420 nM of β-secretase was used for the following experiment.
Various concentrations of HC peptide were preincubated with either Sub M (50 μM) or Sub-ST6Ga11 (50 μM, DYEALTLQAKEFQMPKSQE) peptide corresponding to the β-cleavage site of ST6Ga11 for 2 h at RT. The mixtures containing Sub M was treated with 50 nM of rhBACE1 and that containing Sub-ST6Ga11 was treated with 500 nM enzyme for 12 h at RT. Roughly 50% of each BACE1 substrate was cleaved in the absence of HC peptide. The cleavage products were separated on a C18 reversed-phase HPLC column as described above.

In assay [3] the test system is APP processing in HEK293-APP cells. The experiment in a line: APP inhibitor activity on HEK293-APP cells (βCTF Western blot). Type of assay: cell-based, human. Particulars: γ-secretase inhibitor and cholesterol added. The method, then: In the neuronal cells of the brain, APP is processed by α-secretase or β-secretase. To investigate the effects of the inhibitors on the cell, a cell based assay system was developed as described in FIG. 10. C-terminal fragment of APP remaining on the cell membrane was detected by Western blot. The resulting C-terminal fragments, αCTF or βCTF are further processed by γ-secretase. However, if the cells are treated with the γ-secretase inhibitor, this processing is blocked. As a result, αCTF or βCTF accumulate in the cell. If β-secretase inhibitor or APP inhibitor is added, this processing is blocked and βCTF disappears.
In addition, γ-secretase inhibitor and cholesterol were added to the cells to increase βCTF level. Commercially available peptide-based β-secretase inhibitor was included as control (Lane 6, FIG. 11). To detect the N-terminal fragment of β-amyloid which is a product of APP processing, 6E10 antibody was employed. […] Recently, it has been reported that the commercially available peptide-based inhibitor had to be linked to an oligoarginine transporter peptide to have inhibitory activity against cells. Therefore, mimetic approach is adopted to produce cell permeable analogs. (Chang et al. J. Neurochemistry 2004; 89:1409-1416).
After confirming the ability of the oligo-arginine coupled APP inhibitors to enter the cells, the inhibitors were applied to HEK293-APP cells overexpressing APP to test their inhibitory activities on APP processing. […] This inhibitor started to show significant inhibitory activity beginning from 0.1 μM (lower panel).

Assay [4] concerns cleavage of Substrate M by β-secretase. The experiment in a line: Inhibition of cleavage of Substrate M by β-secretase by complementary and deletion peptides (Examples 1, 5, 6; assay format not stated). Type of assay: biochemical. The note with it: various concentrations, Substrate M (FIG. 8). The method, then:
So far we have focused on c-Sub M peptide. Serial deletions were made from N-terminus or C-terminus of c-Sub M (FIG. 5), and we investigated effect of the deletions on the cleavage of Substrate M. The optimum peptide/substrate ratio for inhibition on the cleavage of substrate was determined by observing the inhibition percentage at various peptide/substrate ratios (FIG. 4). Subsequently, the inhibitory activity of the deletion peptides were tested at 10 inhibitor/substrate ratio and the concentration of the Substrate M was 50 μM. Deletion of the first two amino acids from the N-terminus had little effect on the activity and deletion of five amino acids from the C-terminus of c-Sub M had little effect on the inhibitory activity (FIG. 6). Further deleted peptides were tested for inhibitory activity on the cleavage of Substrate M (FIG. 7).
The above-mentioned peptides that have inhibitory activity were tested at various concentrations for their inhibitory activities on their mutant substrate Substrate M (FIG. 8).

For assay [5], the target named is T2, Sub-ST6Ga11 (DYEALTLQAKEFQMPKSQE) (Rattus norvegicus, UniProt P13721).
T2 construct: 19 amino acid region (DYEALTL/QAKEFQMPKSQE) that contains the β-cleavage site for investigation was chosen; purchased Peptron, Inc; host or cells: chemical synthesis
The experiment in a line: Binding of bio-Sub-ST6Ga11 to immobilized HC peptide. The note with it: HC peptide chemically coupled on microtiter plate. Here is the method:
Reacti-Bind™ maleic anhydride-activated polystyrene plate (Pierce, IL, USA) was coated with 50 μl of HC peptide (200 μM in distilled water) by chemical coupling for 3 h at room temperature (RT) and washed three times with phosphate buffered saline (PBS) containing 0.05% tween 20 (PBST). The plate was blocked with blocking buffer (0.5% gelatin in PBS) for 1 h at RT. After discarding blocking buffer, biotinylated BACE1 substrates (200 μM) in blocking buffer was applied on the plate and incubated for 2.5 h at RT. Each well was washed three times with PBST. The bound biotinylated BACE1 substrates were detected by incubation with streptavidin-horseradish peroxidase (Str-HRP, 125 mU/ml in blocking buffer) for 2 h at RT. Color reaction was carried out with 50 μl of 3,3′,5,5′-Tetramethylbenzidine Liquid Substrate (Sigma-Aldrich, MO, USA). After stopping the reaction by addition of an equal volume of 1 N HCl, absorbance at 450 nm was read in an automated ELISA reader (EL 312e, Bio-Tek Instruments, VT, USA). All assays were carried out in duplicate.
It was investigated if HC peptide would show specificity for APP in terms of the inhibition of cleavage by BACE1. ST6Ga11 is also cleaved by BACE1. For this experiment, 19 amino acid region (DYEALTL/QAKEFQMPKSQE) that contains the β-cleavage site for investigation was chosen. The 19 amino acid peptide was designated as Sub-ST6Ga11. […]

As for EFCIQIHF [c-Sub M ΔN1C1], the “absorbance in binding test” value in assay [1] is given as “high absorbance”. In addition, the “inhibition of cleavage of Sub-ST6Ga11 by rhBACE1” value in assay [2] is “about 10%”. For the same sequence, in assay [3], the “inhibitory activity on APP processing (βCTF)” value is reported as “none of the inhibitors tested showed inhibitory activity”. In addition, the “concentration dependent inhibitory activity, activity group” value in assay [4] is on record as “most active group”. In addition, in assay [5], the “binding of bio-Sub-ST6Ga11” value is “also bound”.

Source of the values: US20090176711A1, “INHIBITORS OF AMYLOID PRECURSOR PROTEIN PROCESSING” (priority 2008, published 2009).
